The record followed here is patent US11214803B2, “Modulators of YAP1 expression” (Ionis Pharmaceuticals, Inc., priority 2019, dated 2022).

This data set concerns Yap1 mRNA. Description: Antisense inhibition of human Yap1 in SNU-449 cells by modified oligonucleotides, single dose (Example 5, RTS36584). The format is cell-based. The gist of the method: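 Free uptake, 2,000 nM, ~48 h, SNU-449 at 10,000 cells/well. Read-out: qRT-PCR (RTS36584), RIBOGREEN-normalised, expressed as % UTC. Asterisk = oligo hits amplicon region.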
The mark [1] stands for this setting: Table 42 (separate experiment), SNU-449 cells, 10,000 cells per well, free uptake, 2,000 nM modified oligonucleotide, approximately 48 hours, RTS36584, normalized to RIBOGREEN, Yap1 mRNA relative to untreated control cells.
[2] abbreviates: Table 50, Yap1 mRNA remaining as percent of untreated control (UT), SNU-449 cells, single dose.
Setting [3] is: Table 48, Yap1 mRNA level relative to untreated control, modified oligonucleotides targeting SEQ ID NO.: 1 and 2.
[4] abbreviates: Table 51, Yap1 mRNA remaining as percent of untreated control (UT), SNU-449 cells, single dose.
The mark [5] stands for this setting: Table 49, Yap1 mRNA level relative to untreated control, modified oligonucleotides targeting SEQ ID NO.: 1 and 2.
The mark [6] stands for this setting: Table 44 experiment, SNU-449 cells, 10,000 cells per well, free uptake, 2,000 nM, approximately 48 hours, RTS36584, Yap1 mRNA normalized to RIBOGREEN, relative to untreated control cells.
[7] abbreviates: Table 46, Yap1 mRNA as percent of untreated control, SNU-449 cells, single dose.
Setting [8] is: Table 45, Yap1 mRNA as percent of untreated control, SNU-449 cells, single dose.
Where [9] appears, read: Yap1 mRNA, percent of untreated control, modified oligonucleotides targeting SEQ ID NO: 1 and 2, Table 47.
[10] abbreviates: Table 40 (separate experiment), SNU-449 cells, 10,000 cells per well, free uptake, 2,000 nM oligonucleotide, approx. 48 hours, RTS36584, normalized to RIBOGREEN, Yap1 mRNA relative to untreated control.
Setting [11] is: Table 39, SNU-449 cells, 10,000 cells per well, free uptake, 2,000 nM oligonucleotide, approx. 48 hours, RTS36584, normalized to RIBOGREEN, Yap1 mRNA relative to untreated control.
Where [12] appears, read: Table 52, Yap1 mRNA, modified oligonucleotides targeting SEQ ID NO: 1 and 2.
[13] abbreviates: Table 43 experiment, SNU-449 cells, 10,000 cells per well, free uptake, 2,000 nM, approximately 48 hours, RTS36584, Yap1 mRNA normalized to RIBOGREEN, relative to untreated control cells.
[14] abbreviates: Table 41, SNU-449 cells, 10,000 cells per well, free uptake, 2,000 nM modified oligonucleotide, approximately 48 hours, RTS36584, normalized to RIBOGREEN, Yap1 mRNA relative to untreated control cells.

Strand notation (5' to 3'): a small letter for the sugar, then the base; units joined by * are phosphorothioate-linked, units joined directly phosphodiester-linked; [ ] holds rarer units or linkages, { } end groups; capitals alone tell only the bases. e = 2'-O-(2-methoxyethyl) (MOE); k = constrained ethyl (cEt); [5mC] = 5-methylcytosine; d = 2'-deoxy (DNA); m = 2'-O-methyl

As for “1198239 (kA*kG*dG*dA*dT*dG*d[5mC]*dA*dT*dG*dG*eT*eT*eT*kT*kT) [Compound 1198239]”, under setting [1], the “YAP1 (% UTC)” value stood at 39 % UTC.

As to “1197294 (kG*k[5mC]*kA*d[5mC]*mU*dT*dT*dT*dA*d[5mC]*dA*dT*dT*kA*kG*kG; antisense) [Compound 1197294]”, under setting [2], the “YAP1 (% UT)” value worked out at 25 % UT.

For the substance “1198287 (kA*kA*kA*dT*dT*dG*dT*d[5mC]*dT*d[5mC]*dA*dT*kG*e[5mC]*k[5mC]*eT; antisense) [Compound 1198287]”, the “YAP1 (% UT)” value under setting [3] stood at 13 % UT.

Consider “1200793 (kA*kG*kT*dA*dT*mG*dT*dG*dG*d[5mC]*dA*dA*dT*kA*kA*kT; antisense) [Compound 1200793]”, for which, under setting [4], the “YAP1 (% UT)” value was determined as 31 % UT.

“1198571 (antisense kA*kG*k[5mC]*dA*d[5mC]*dT*dT*dT*dT*dA*d[5mC]*dA*kT*kT*kA*eG) [Compound 1198571]”: under setting [5], the “YAP1 (% UT)” value was 32 % UT.

As for “1198903 (kA*kT*dT*dA*dG*dA*dG*dT*dA*dT*dG*kT*dG*kG*d[5mC]*kA; antisense) [Compound 1198903]”, the “YAP1 (% UTC)” value under setting [6] is given as 24 % UTC.

Regarding “1200786 (kA*kA*kT*dT*dG*mU*d[5mC]*dT*d[5mC]*dA*dT*dG*d[5mC]*k[5mC]*kT*kT; antisense) [Compound 1200786]”, the “YAP1 (% UT)” value under setting [4] was 21 % UT.

As to “1198810 (antisense kT*kG*dG*dA*dA*dA*dT*dT*dG*dT*d[5mC]*kT*e[5mC]*kA*eT*kG) [Compound 1198810]”, the “YAP1 (% UT)” value under setting [7] was determined as 50 % UT.

For “1198303 (kG*kG*kT*dA*dT*dA*dA*d[5mC]*dT*dG*dG*dG*k[5mC]*eA*kA*eA; antisense) [Compound 1198303]”, the “YAP1 (% UT)” value under setting [5] was found to be 27 % UT.

In the case of “1095509 (antisense kT*kG*dA*dG*dG*dT*dA*dT*dA*dA*d[5mC]*kT*dG*kG*dG*k[5mC]) [Compound 1095509]”, the “YAP1 (% UTC)” value under setting [8] turned out to be 29 % UTC.

As to “1197232 (antisense kA*kT*kA*dT*mG*dG*dA*dA*dA*dT*dT*dG*dT*k[5mC]*kT*k[5mC]) [Compound 1197232]”, under setting [2], the “YAP1 (% UT)” value stood at 55 % UT.

For “1200787 (kA*kA*kA*dT*dT*mG*dT*d[5mC]*dT*d[5mC]*dA*dT*dG*k[5mC]*k[5mC]*kT) [Compound 1200787]”, under setting [4], the “YAP1 (% UT)” value was 38 % UT.

Consider “1197201 (antisense kT*k[5mC]*kT*dT*dA*dT*dA*dT*dG*dG*dT*dT*dT*kT*kG*kT) [Compound 1197201]”, for which the “YAP1 (% UT)” value under setting [3] was 46 % UT.

With “1197181 (antisense kT*kT*kA*d[5mC]*dA*dT*dT*dA*dG*dG*dA*dA*d[5mC]*kA*kA*kG) [Compound 1197181]”, the “YAP1 (% UT)” value under setting [9] is 87 % UT.

Regarding “1198747 (kA*eG*k[5mC]*dA*d[5mC]*dT*dT*dT*dT*dA*d[5mC]*dA*eT*eT*kA*kG; antisense) [Compound 1198747]”, under setting [10], the “YAP1 (% UTC)” value is given as 38 % UTC.

Turning to “1198414 (kA*dT*dT*dT*dA*dG*dG*dA*dT*dG*d[5mC]*kA*eT*kG*eG*kT) [Compound 1198414]”, the “YAP1 (% UTC)” value under setting [11] is 20 % UTC.

“1200805 (kG*kA*kG*dG*dT*mA*dT*dA*dA*d[5mC]*dT*dG*dG*kG*k[5mC]*kA; antisense) [Compound 1200805]”: under setting [12], the “YAP1 (% UT)” value is recorded as 50 % UT.

In the case of “1198429 (kA*dT*dT*dG*d[5mC]*dA*dA*dT*d[5mC]*dT*dG*kT*e[5mC]*kT*eG*kA; antisense) [Compound 1198429]”, the “YAP1 (% UTC)” value under setting [11] came out at 48 % UTC.

In the case of “1197188 (antisense kT*kT*kG*dG*dA*dA*dG*dA*dT*d[5mC]*dT*dG*dA*kA*kA*k[5mC]) [Compound 1197188]”, the “YAP1 (% UT)” value under setting [9] was found to be 96 % UT.

For “1198679 (antisense TTATATGGTTTTGTGT; cEt/MOE gapmer, phosphorothioate, chemistry not fully specified) [Compound 1198679]”, the “YAP1 (% UTC)” value under setting [1] is given as 54 % UTC.

With “1198728 (kT*eA*kT*dT*dA*dG*dA*dG*dT*dA*dT*dG*eT*eG*kG*k[5mC]; antisense) [Compound 1198728]”, under setting [10], the “YAP1 (% UTC)” value is 17 % UTC.

Regarding “1009324 (kA*kG*kT*dA*dT*dG*dT*dG*dG*d[5mC]*dA*dA*dT*kA*kA*kT; antisense) [Compound 1009324]”, under setting [9], the “YAP1 (% UT)” value came out at 27 % UT.

“1198283 (kT*kT*dA*dG*dA*d[5mC]*dT*dA*dA*dG*dT*eA*eA*eG*kG*kT; antisense) [Compound 1198283]”: the “YAP1 (% UTC)” value under setting [13] was determined as 99 % UTC.

On to “1198846 (kT*kT*dA*dG*dG*dA*dT*dG*d[5mC]*dA*dT*kG*eG*kT*eT*kT; antisense) [Compound 1198846]”, for which, under setting [7], the “YAP1 (% UT)” value is recorded as 34 % UT.

Take “1200851 (kG*kT*kA*dA*dT*mA*dT*dT*dG*d[5mC]*dA*dA*dT*k[5mC]*kT*kG; antisense) [Compound 1200851]”: the “YAP1 (% UT)” value under setting [12] is 25 % UT.

On to “1198794 (antisense kA*eA*k[5mC]*dT*dT*dT*dA*dA*dA*dG*dT*dG*eT*eA*kT*kG) [Compound 1198794]”, for which the “YAP1 (% UTC)” value under setting [14] was 74 % UTC.

With “1198479 (antisense kT*kT*dA*d[5mC]*dA*dT*dT*dA*dG*dG*dA*eA*k[5mC]*eA*kA*eG) [Compound 1198479]”, the “YAP1 (% UTC)” value under setting [13] is given as 65 % UTC.

Regarding “1095595 (antisense k[5mC]*kA*d[5mC]*dT*dG*dA*dG*dG*dT*dA*dT*eA*eA*e[5mC]*kT*kG) [Compound 1095595]”, the “YAP1 (% UTC)” value under setting [13] stood at 63 % UTC.

As to “1198661 (antisense kT*kT*dG*dG*dA*dA*dG*dA*dT*d[5mC]*dT*dG*kA*eA*kA*e[5mC]) [Compound 1198661]”, the “YAP1 (% UTC)” value under setting [14] is recorded as 111 % UTC.

On to “1198853 (kA*kT*dT*d[5mC]*dA*dG*dA*dT*dT*dT*dA*kG*eG*kA*eT*kG; antisense) [Compound 1198853]”, for which the “YAP1 (% UT)” value under setting [7] is on record as 105 % UT.

As to “1198852 (kT*k[5mC]*dA*dG*dA*dT*dT*dT*dA*dG*dG*kA*eT*kG*e[5mC]*kA; antisense) [Compound 1198852]”, the “YAP1 (% UT)” value under setting [7] is 41 % UT.

Take “1198458 (kA*kA*dT*dT*dG*dT*d[5mC]*dT*d[5mC]*dA*dT*eG*k[5mC]*e[5mC]*kT*eT) [Compound 1198458]”: the “YAP1 (% UTC)” value under setting [13] came to 30 % UTC.

With “1198797 (antisense kA*eA*kG*dT*dA*dA*dG*dG*dT*dT*dT*d[5mC]*e[5mC]*e[5mC]*kA*kG) [Compound 1198797]”, the “YAP1 (% UTC)” value under setting [10] was found to be 31 % UTC.

Turning to “1197247 (antisense kA*kA*kG*d[5mC]*mA*d[5mC]*dT*dT*dT*dT*dA*d[5mC]*dA*kT*kT*kA) [Compound 1197247]”, the “YAP1 (% UT)” value under setting [2] worked out at 47 % UT.

With “1198912 (kA*kA*d[5mC]*dA*d[5mC]*dT*dG*dA*dG*dG*dT*kA*dT*kA*dA*k[5mC]; antisense) [Compound 1198912]”, the “YAP1 (% UTC)” value under setting [8] is given as 78 % UTC.

Turning to “1197278 (kG*kA*k[5mC]*dT*mA*dA*dG*dT*dA*dA*dG*dG*dT*kT*kT*k[5mC]) [Compound 1197278]”, under setting [4], the “YAP1 (% UT)” value is listed as 36 % UT.

As for “1198216 (kT*kA*dT*dA*dA*d[5mC]*dT*dG*dG*dG*d[5mC]*eA*eA*eA*kT*kT; antisense) [Compound 1198216]”, the “YAP1 (% UTC)” value under setting [13] amounted to 89 % UTC.

Consider “1197196 (antisense k[5mC]*kA*kG*dA*dT*dT*dT*dA*dG*dG*dA*dT*dG*k[5mC]*kA*kT) [Compound 1197196]”, for which the “YAP1 (% UT)” value under setting [9] turned out to be 27 % UT.

For the substance “1198378 (kA*dT*dA*dT*dG*dG*dA*dA*dA*dT*dT*kG*eT*k[5mC]*eT*k[5mC]; antisense) [Compound 1198378]”, under setting [11], the “YAP1 (% UTC)” value is on record as 39 % UTC.

For the substance “1198363 (kA*kA*kG*dT*dA*dA*dG*dG*dT*dT*dT*d[5mC]*k[5mC]*e[5mC]*kA*eG; antisense) [Compound 1198363]”, the “YAP1 (% UT)” value under setting [5] is on record as 55 % UT.

In the case of “1198491 (antisense k[5mC]*kT*dT*dT*dG*dG*dA*dA*dG*dA*dT*e[5mC]*kT*eG*kA*eA) [Compound 1198491]”, the “YAP1 (% UTC)” value under setting [6] worked out at 22 % UTC.

As to “1198326 (kT*kT*kA*dG*dG*dA*dT*dG*d[5mC]*dA*dT*dG*kG*eT*kT*eT; antisense) [Compound 1198326]”, the “YAP1 (% UT)” value under setting [3] is 84 % UT.

Take “1198745 (k[5mC]*eA*k[5mC]*dT*dT*dT*dT*dA*d[5mC]*dA*dT*dT*eA*eG*kG*kA; antisense) [Compound 1198745]”: the “YAP1 (% UTC)” value under setting [10] is given as 57 % UTC.

For the substance “1198297 (kA*kT*kT*dA*dG*dA*dG*dT*dA*dT*dG*dT*kG*eG*k[5mC]*eA; antisense) [Compound 1198297]”, the “YAP1 (% UT)” value under setting [3] turned out to be 8 % UT.

For the substance “1200862 (kT*kT*kT*dA*dA*mA*dG*dT*dG*dT*dA*dT*dG*kT*k[5mC]*kA; antisense) [Compound 1200862]”, the “YAP1 (% UT)” value under setting [12] is 17 % UT.
